The text below walks through data of US9593305B2, “Differentiation of pluripotent stem cells” (Janssen Biotech, Inc., priority 2008, dated 2017).

In the test the test system is H1 human embryonic stem cells. Description: Definitive endoderm formation with GDF family members, SOX17 and cell number (Example 13). Particulars: for SOX17 expression, reagent alone: 20 ng/ml Wnt3a or 2.5 μM compound alone, four days; for SOX17 induction in combination with GDF-8: 2.5 μM compound with 100 ng/ml GDF-8, exceeding activin A/Wnt3a positive control. In kind it is cell-based. The method, then: Stock cultures of human embryonic stem cells (H1 human embryonic stem cell line) were maintained in an undifferentiated, pluripotent state on reduced growth factor […]™ (BD Biosciences; Cat #356231)-coated dishes in MEF conditioned medium with passage on average every four days. Passage was performed by exposing cell cultures to a solution of 1 mg/ml dispase (Invitrogen; Cat #17105-041) for 5 to 7 minutes at 37° C. followed by rinsing the monolayer with MEF conditioned culture medium and gentle scraping to recover cell clusters. Clusters were centrifuged at low speed to collect a cell pellet and remove residual dispase. Cell clusters were split at a 1:3 or 1:4 ratio for routine maintenance culture or a 1:1 ratio for immediate assay. All human ES cell lines were maintained at passage numbers less than 50 and routinely evaluated for normal karyotype and absence of mycoplasma.
Cell clusters were evenly resuspended in MEF conditioned medium supplemented with 8 ng/ml bFGF and seeded onto reduced growth factor […]™-coated 96-well Packard VIEWPLATES (PerkinElmer; Cat #6005182) in volumes of 0.1 ml/well. Daily feeding was conducted by aspirating spent culture medium from each well and replacing with an equal volume of fresh medium. Plates were maintained at 37° C., 5% CO2 throughout the duration of assay.
The assay was initiated by aspirating the culture medium from each well and adding back aliquots (100 μl) of test medium. Test conditions were performed in triplicate over a total four-day assay period, feeding on day 1 and day 3 by aspirating and replacing the medium from each well with fresh test medium. Various members of the GDF family of proteins were obtained for testing as follows: GDF-3 (PeproTech; Cat #120-22); GDF-5 (DePuy Orthopaedics, Inc., a Johnson & Johnson company); GDF-8 (R&D Systems; Cat #788-G8); GDF-10 (R&D Systems; Cat #1543-BP); GDF11 (PeproTech; Cat #120-11); GDF-15 (R&D Systems; Cat #957-GD). On the first day of assay, all wells received an aliquot (80 μl) of basal medium DMEM:F12 medium (Invitrogen; Cat #11330-032) supplemented with 0.5% fetal bovine serum (Hyclone; Cat #SH30070.03). A series of five different control or experimental test samples was created to evaluate activin A or various GDFs in combination with Wnt3a or Compound 34 or Compound 56. These test samples were added in 20 μl aliquots (5× concentrated) to appropriately matched assay wells to yield a final assay volume of 100 μl in each well at the final assay conditions indicated. In the first set of control samples, the following conditions were tested: 1) no additive (i.e. no supplementary growth factor or small molecule); 2) 100 ng/ml activin A (PeproTech; Cat #120-14) in combination with 20 ng/ml Wnt3a (R&D Systems; Cat #1324-WN/CF); 3) 20 ng/ml Wnt3a alone; 4) Compound 34 alone (2.5 μM) without any growth factor or small molecule; 5) Compound 56 alone (2.5 μM) without any growth factor or small molecule. In the second set of test samples, the following conditions were tested in combination with 100 ng/ml GDF3: 1) no additive (i.e. GDF-3 alone); 2) 20 ng/ml Wnt3a; 3) 20 ng/ml Wnt3a with Compound 34 (2.5 μM); 4) Compound 34 (2.5 μM); 5) Compound 56 (2.5 μM); and 6) 20 ng/ml Wnt3a with Compound 56 (2.5 μM). In the third set of test samples, each of the six conditions was combined with 100 ng/ml GDF-5. In the fourth set of test samples, each of the six conditions was combined with 100 ng/ml GDF-8. In the fifth set of test samples, each of the six conditions was combined with 100 ng/ml GDF-10. In the sixth set of test samples, each of the six conditions was combined with 100 ng/ml GDF-11. In the seventh set of test samples, each of the six conditions was combined with 100 ng/ml GDF-15. On the third day of assay, all wells for all test samples, received 100 ng/ml Activin A or 100 ng/ml respective GDF growth factor, without Wnt3a or Compound 34 or Compound 56, diluted into DMEM:F12 medium supplemented with 2% FBS. […]

For `O=C1CCN2CCN(CC2)Cc2cc(Cl)cc(c2)Nc2ncnc(n2)-c2cncc(c2)CCCN1` [Compound 34, 5-Chloro-1,8,10,12,16,22,26,32-octaazapentacyclo[24.2.2.1˜3.7˜0.1˜9,13˜0.1˜14.18˜]tritriaconta-3(33), 4,6,9(32), 10,12,14(31), 15,17-nonaen-23-one], the “SOX17 expression, reagent alone” value is “failed to induce SOX17 expression” and the “SOX17 induction in combination with GDF-8” value is given as “robust induction of SOX17”.
The like results for `Cc1c[nH]c(-c2cnc(NCCNc3ccc(C#N)cn3)nc2-c2ccc(Cl)cc2Cl)n1` [Compound 56, 6-[(2-{[4-(2,4-Dichlorophenyl)-5-(4-methyl-1H-imidazol-2-yl)pyrimidin-2-yl]amino}ethyl)amino]pyridine-3-carbonitrile] were, in that order, “failed to induce SOX17 expression” and “robust induction of SOX17”.
